Test results: patent US20240059677A1, “SUBSTITUTED PYRIMIDINE DERIVATIVES AS NICOTINIC ACETYLCHOLINESTERASE RECEPTOR ALPHA 6 MODULATOR” (priority 2020, published 2024)
Where two headings read alike, the source gives them in different places.

Molecular target: T1, human nAChRα6-α3 chimera, in addition to β2 and β3^V273S subunits (Homo sapiens, UniProt P32297+Q15825)
T1 construct: expressed in transfected cells
Assay: fluorescence-based calcium assay: inhibition of nicotine stimulated nAChRα6 activity (FLIPR)
Details: HEK cell line stably expressing the receptor, 10 min pre-incubation, nicotine EC80, 10-point curve, duplicate wells
Protocol: The ability of the test compounds to inhibit nicotine stimulated nAChRα6 activity was determined in a fluorescence-based calcium assay. Compound activity was determined using a HEK cell line stably expressing a human nAChRα6-α3 chimera, in addition to β2 and β3^V273S subunits (as in Capelli et al, Br J Pharmacol 163(2): 313-29 2011). In this cell line, nicotine stimulated an increase in intracellular calcium concentration, measured as an increase in fluorescence when cells were incubated with a calcium sensitive dye. Test compounds were pre-incubated with cells prior to nicotine stimulation to detect any reduction in the magnitude of the nicotine response.
The day prior to the assay, compounds were serially diluted in DMSO (200× final assay concentration (FAC)), in 384-well plates which were then stored in the dark at room temperature (RT) until use. Cells were seeded at 20 k/well in black, poly-D-lysine coated, clear bottom 384-well plates and incubated for 4 hours at 37° C., followed by overnight incubation at 30° C. The following day, the DMSO compound plate was diluted 1:20 (10×FAC) in assay buffer (HEPES buffered saline solution with 10 mM HEPES, 0.1% bovine serum albumin, 1 mM probenecid). A nicotine solution was prepared in assay buffer (7×FAC) and dispensed into a 384-well plate. The growth media was removed from the cell plate, replaced with 53 μl calcium dye/well (Calcium 5; Molecular Devices) and the plate incubated at 30° C. for 45 minutes. Test compounds were then added to the cells (7 μl of 10×FAC) and incubated for 10 minutes, after which nicotine EC80 (10 μl of 7×FAC) was added and changes in fluorescence measured using a FLIPR plate reader (Molecular Devices).
Compound activity was examined using a 10-point, half-log concentration-response range and each concentration was tested in duplicate wells.

T1 sequence (Q05901 25-458 V273S): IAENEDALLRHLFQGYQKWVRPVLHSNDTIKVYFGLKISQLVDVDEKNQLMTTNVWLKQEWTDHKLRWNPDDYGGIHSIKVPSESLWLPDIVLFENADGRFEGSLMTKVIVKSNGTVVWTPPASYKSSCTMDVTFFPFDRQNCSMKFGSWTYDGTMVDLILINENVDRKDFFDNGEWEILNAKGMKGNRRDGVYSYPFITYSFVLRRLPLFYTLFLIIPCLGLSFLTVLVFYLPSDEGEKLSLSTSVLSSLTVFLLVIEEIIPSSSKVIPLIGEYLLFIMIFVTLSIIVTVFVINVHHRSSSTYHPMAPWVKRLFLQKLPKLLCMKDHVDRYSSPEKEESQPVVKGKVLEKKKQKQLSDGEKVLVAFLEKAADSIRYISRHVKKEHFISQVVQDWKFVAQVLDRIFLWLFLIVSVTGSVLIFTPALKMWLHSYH
T1 sequence (P17787 26-502, stated change not applied, further chain): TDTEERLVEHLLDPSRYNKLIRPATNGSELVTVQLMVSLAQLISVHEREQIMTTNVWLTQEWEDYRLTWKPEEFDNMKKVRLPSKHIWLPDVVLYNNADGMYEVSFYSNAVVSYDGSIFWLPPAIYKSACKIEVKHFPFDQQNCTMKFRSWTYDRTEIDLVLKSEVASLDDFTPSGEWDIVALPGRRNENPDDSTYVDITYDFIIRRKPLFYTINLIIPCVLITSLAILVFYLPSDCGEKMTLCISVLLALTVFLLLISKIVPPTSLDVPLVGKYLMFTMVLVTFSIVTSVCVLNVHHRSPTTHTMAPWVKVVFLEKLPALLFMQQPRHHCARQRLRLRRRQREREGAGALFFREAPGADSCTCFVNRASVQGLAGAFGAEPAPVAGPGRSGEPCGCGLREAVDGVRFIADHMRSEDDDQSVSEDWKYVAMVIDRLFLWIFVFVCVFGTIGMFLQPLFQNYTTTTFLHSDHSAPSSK
T1 sequence (Q15825+P32297 fused with the stated changes): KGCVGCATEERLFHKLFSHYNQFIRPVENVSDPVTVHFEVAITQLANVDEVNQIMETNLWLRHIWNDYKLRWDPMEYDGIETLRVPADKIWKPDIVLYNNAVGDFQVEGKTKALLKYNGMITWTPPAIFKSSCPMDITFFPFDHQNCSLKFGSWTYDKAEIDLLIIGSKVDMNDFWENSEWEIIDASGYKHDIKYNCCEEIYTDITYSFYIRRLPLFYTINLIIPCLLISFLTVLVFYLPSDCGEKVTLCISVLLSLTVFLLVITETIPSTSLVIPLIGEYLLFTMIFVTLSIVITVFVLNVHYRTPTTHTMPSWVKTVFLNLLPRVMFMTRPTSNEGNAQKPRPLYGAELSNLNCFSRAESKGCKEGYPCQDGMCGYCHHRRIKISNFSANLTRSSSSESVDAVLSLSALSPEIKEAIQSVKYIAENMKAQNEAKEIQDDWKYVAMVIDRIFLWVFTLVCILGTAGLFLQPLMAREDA

SMILES	IC50 (read-out: IC50)	IC50 (IC50 (μM))
Cc1nc(N[C@@H]2CNC[C@@H]2F)ncc1-c1ccc(C(F)(F)F)cc1F (relative stereo) [Example 112, N-((cis)-4-fluoropyrrolidin-3-yl)-5-(2-fluoro-4-(trifluoromethyl)phenyl)-4-methyl-pyrimidin-2-amine]	0.107 µM	
Cc1nc(N[C@H]2CCCNC2)ncc1-c1ccc(C(F)(F)F)cc1F [Example 116, (S)-5-(2-fluoro-4-(trifluoromethyl)phenyl)-4-methyl-N-(3-piperidinyl) pyrimidin-2-amine]		0.127 µM
COc1ccc(F)c(-c2cnc(NCC3CCCCN3C)nc2C)c1 (stereo not drawn) [Example 33, 5-(2-fluoro-5-methoxyphenyl)-4-methyl-N-((1-methylpiperidin-2-yl)methyl) pyrimidin-2-amine]	0.045 µM	
[2H]C([2H])([2H])N1CCCC1CNc1ncc(-c2ccc(F)cc2F)c(C)n1 (stereo not drawn) [Example 87]	0.045 µM	
O=C(O)/C=C/C(=O)O.[2H]C([2H])([2H])N1CCC[C@H]1CNc1ncc(-c2ccc(C(F)(F)F)cc2F)c(C)n1 [Example 118, (S)-5-(2-fluoro-4-(trifluoromethyl)phenyl)-4-methyl-N-((1-(trideuteriomethyl)pyrrolidin-2-yl)methyl)pyrimidin-2-amine]	0.075 µM	
Cc1nc(NC[C@@H]2CCCN2C)ncc1-c1ccc(F)cc1F [Example 24a, (S)-5-(2,4-difluorophenyl)-4-methyl-N-((1-methylpyrrolidin-2-yl)methyl) pyrimidin-2-amine]	0.062 µM	
Cc1nc(NCC2CCC(C)N2C)ncc1-c1ccc(C(F)(F)F)cc1F (single isomer, unassigned) [Example 138d, N-(((2*S,5*R)-1,5-dimethylpyrrolidin-2-yl)methyl)-5-(2-fluoro-4-(trifluoromethyl)phenyl)-4-methyl-pyrimidin-2-amine]	0.025 µM	
Cc1nc(NC(C)[C@@H]2CCCN2C)ncc1-c1ccc(C(F)(F)F)cc1F (single isomer, unassigned) [Example 132b, 5-(2-fluoro-4-(trifluoromethyl)phenyl)-4-methyl-N-((1*S)-1-((2S)-1-methylpyrrolidin-2-yl)ethyl)pyrimidin-2-amine]	0.097 µM	
Cc1nc(NC2CC3(CNC3)C2)ncc1-c1ccc(C(F)(F)F)cc1F [Example 122, N-(5-(2-fluoro-4-(trifluoromethyl)phenyl)-4-methyl-pyrimidin-2-yl)-2-azaspiro[3.3]heptan-6-amine]	0.039 µM	
Cc1nc(NC(C)[C@H]2CCCN2C)ncc1-c1ccc(C(F)(F)F)cc1F (single isomer, unassigned) [Example 131a, 5-(2-fluoro-4-(trifluoromethyl)phenyl)-4-methyl-N-((1*R)-1-((2R)-1-methylpyrrolidin-2-yl)ethyl)pyrimidin-2-amine]	0.172 µM	
COc1ccc(-c2c(C)nc(NCC3CCCN3C)nc2OC)c(F)c1 (stereo not drawn) [Example 75, 5-(2-fluoro-4-methoxyphenyl)-4-methoxy-6-methyl-N-((1-methylpyrrolidin-2-yl)methyl)pyrimidin-2-amine]	0.094 µM	
Cc1nc(NCC2CCCN2C)nnc1-c1ccc(F)cc1F (single isomer, unassigned) [Example 74a, 6-(2,4-difluorophenyl)-5-methyl-N-((1-methylpyrrolidin-2-yl)methyl)-1,2,4-triazin-3-amine]	0.693 µM	
Cc1nc(N[C@H]2CC[C@H](N)C2)ncc1-c1ccc(C(F)(F)F)cc1F [Example 111, (1S,3S)—N^3-(5-(2-fluoro-4-(trifluoromethyl)phenyl)-4-methyl-pyrimidin-2-yl)cyclopentane-1,3-diamine]	0.09 µM	
COc1ccc(-c2nnc(NCC3CCCN3C)nc2C)c(F)c1 (racemic) [Example 18, 6-(2-fluoro-4-methoxyphenyl)-5-methyl-N-((1-methylpyrrolidin-2-yl)methyl)-1,2,4-triazin-3-amine]	0.526 µM	
COc1ccc(-c2cnc(NCC3CCN(C)C3)nc2C2CC2)c(F)c1 (stereo not drawn) [Example 37, 4-cyclopropyl-5-(2-fluoro-4-methoxyphenyl)-N-((1-methylpyrrolidin-3-yl)methyl)pyrimidin-2-amine]	0.103 µM	
Cc1nc(NC[C@H]2CCCN2C)ncc1-c1ccc(F)cc1C(F)(F)F [Example 92a, (R)-5-(4-fluoro-2-(trifluoromethyl)phenyl)-4-methyl-N-((1-methylpyrrolidin-2-yl)methyl)pyrimidin-2-amine]	0.033 µM	
Cc1nc(NC(C)[C@H]2CCCN2)ncc1-c1ccc(C(F)(F)F)cc1F (single isomer, unassigned) [Example 129b, 5-(2-fluoro-4-(trifluoromethyl)phenyl)-4-methyl-N-((1*S)-1-((2R)-pyrrolidin-2-yl)ethyl)pyrimidin-2-amine]	0.105 µM	

SMILES	IC50 (read-out: IC50)	IC50 (IC50 (μM))
Cc1nc(NC2CCCN(CC(F)(F)F)C2)ncc1-c1ccc(F)cc1F (stereo not drawn) [Example 60, 5-(2,4-difluorophenyl)-4-methyl-N-(1-(2,2,2-trifluoroethyl)piperidin-3-yl) pyrimidin-2-amine]	1.18 µM	
Cc1nc(NC2CCN(C(C)C)CC2)ncc1-c1ccc(OC(F)(F)F)cc1F [Example 88, 5-(2-fluoro-4-(trifluoromethoxy)phenyl)-N-(1-isopropylpiperidin-4-yl)-4-methyl-pyrimidin-2-amine]	0.149 µM	
Cc1nc(N[C@H]2CNC[C@@H]2F)ncc1-c1ccc(C(F)(F)F)cc1F (relative stereo) [Example 114, N-((trans)-4-fluoropyrrolidin-3-yl)-5-(2-fluoro-4-(trifluoromethyl)phenyl)-4-methyl-pyrimidin-2-amine]	0.142 µM	
Cc1nc(N[C@H]2CCN(C(C)C)C2)ncc1-c1ccc(C(F)(F)F)cc1F [Example 100, (S)-5-(2-fluoro-4-(trifluoromethyl)phenyl)-N-(1-isopropylpyrrolidin-3-yl)-4-methyl-pyrimidin-2-amine]	0.11 µM	
Cc1nc(NCc2cccnc2)ncc1-c1ccc(F)cc1F [Example 42, 5-(2,4-difluorophenyl)-4-methyl-N-(pyridin-3-ylmethyl)pyrimidin-2-amine]	1.2 µM	
Cc1nc(NC2CCCC(N(C)C)C2)ncc1-c1ccc(F)cc1F (single isomer, unassigned) [Example 55a, N^1-(5-(2,4-difluorophenyl)-4-methyl-pyrimidin-2-yl)-N^3,N^3-dimethylcyclohexane-1,3-diamine]	0.098 µM	
Cc1nc(NCCC2CCCN2C)nnc1-c1ccc(F)cc1F (stereo not drawn) [Example 21, 6-(2,4-difluorophenyl)-5-methyl-N-(2-(1-methylpyrrolidin-2-yl)ethyl)-1,2,4-triazin-3-amine]	0.599 µM	
COc1ccc(-c2nnc(NCC3CCCCN3C)nc2C)c(F)c1 (single isomer, unassigned) [Example 57a, 6-(2-fluoro-4-methoxyphenyl)-5-methyl-N-((1-methylpiperidin-2-yl)methyl)-1,2,4-triazin-3-amine]	0.139 µM	
Cc1nc(NCC2CCCCN2C)nnc1-c1ccc(F)cc1F (stereo not drawn) [Example 20, 6-(2,4-difluorophenyl)-5-methyl-N-((1-methylpiperidin-2-yl)methyl)-1,2,4-triazin-3-amine]	0.49 µM	
Cc1nc(NC[C@H]2CN(C)CCO2)ncc1-c1ccc(C(F)(F)F)cc1F (single isomer, unassigned) [Example 108b]	0.077 µM	
Cc1nc(NC[C@@]2(C)CCCN2)ncc1-c1ccc(C(F)(F)F)cc1F [Example 135, (R)-5-(2-fluoro-4-(trifluoromethyl)phenyl)-4-methyl-N-((2-methyl-pyrrolidin-2-yl)methyl)pyrimidin-2-amine]	0.07 µM	
COc1ccc(-c2cnc(NCC3CCN(C)C3)nc2C#N)c(F)c1 (stereo not drawn) [Example 31, 5-(2-fluoro-4-methoxyphenyl)-2-(((1-methylpyrrolidin-3-yl)methyl)amino) pyrimidine-4-carbonitrile]	0.082 µM	
Cc1nc(NC2CCN(C)CC2)ncc1-c1ccc(OC(F)(F)F)cc1F [Example 89, 5-(2-fluoro-4-(trifluoromethoxy)phenyl)-4-methyl-N-(1-methylpiperidin-4-yl)pyrimidin-2-amine]	0.18 µM	
COc1ccc(-c2nnc(NC3CCCN(C(C)C)C3)nc2C)c(F)c1 (single isomer, unassigned) [Example 76b, 6-(2-fluoro-4-methoxyphenyl)-N-(1-isopropylpiperidin-3-yl)-5-methyl-1,2,4-triazin-3-amine]	0.107 µM	
Cc1nc(NC(C)[C@H]2CCCN2C)ncc1-c1ccc(C(F)(F)F)cc1F (single isomer, unassigned) [Example 131b, 5-(2-fluoro-4-(trifluoromethyl)phenyl)-4-methyl-N-((1*S)-1-((2R)-1-methylpyrrolidin-2-yl)ethyl)pyrimidin-2-amine]	0.291 µM	
Cc1nc(NCC2(N(C)C)CCCC2)ncc1-c1ccc(F)cc1F [Example 11, 5-(2,4-difluorophenyl)-N-((1-(dimethylamino)cyclopentyl)methyl)-4-methyl-pyrimidin-2-amine]	0.246 µM	
